According to article doi:10.1101/2021.02.09.430557v1 (biorxiv, 2021):

Biological target: T1, AnHSD (Paenarthrobacter nicotinovorans, UniProt A0ABT9TQY6)
T1 sequence (A0ABT9TQY6 1-348): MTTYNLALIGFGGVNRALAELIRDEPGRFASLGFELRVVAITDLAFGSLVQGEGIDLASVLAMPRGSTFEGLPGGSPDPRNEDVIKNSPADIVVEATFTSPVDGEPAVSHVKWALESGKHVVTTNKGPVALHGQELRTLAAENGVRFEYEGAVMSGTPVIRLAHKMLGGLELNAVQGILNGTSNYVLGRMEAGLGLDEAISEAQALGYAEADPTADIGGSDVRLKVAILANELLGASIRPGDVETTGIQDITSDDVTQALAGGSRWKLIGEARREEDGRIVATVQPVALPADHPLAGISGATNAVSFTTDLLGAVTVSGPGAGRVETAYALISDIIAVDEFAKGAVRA
Experiment: residual L-homoserine oxidation activity, absorbance at […] nm
Format: biochemical
Settings: read-out: Relative activity (%) at 10 mM

- activity at 10000 µM: 76.7 ± 1.53%
SMILES: N[C@@H](CC(=O)O)C(=O)O [L-aspartate]
